# In US12446584B2, “Termiticide composition and methods for treating termites” (ADAMA MAKHTESHIM LTD., priority 2013, dated 2025):
# Like-named read-outs stand apart in the source and are kept apart here.
# Tests used:
# Assay type in all cases: in vivo
# [1] = system: Formosan subterranean termites (Coptotermes formosanus); assay: Thin plate bioassay; settings: 0.05% solution
# Method: (§1) A laboratory study was conducted, using recently collected R. flavipes and C. formosanus. Thin plate bioassays were assembled using 0.6 cm glass and 0.6 cm clear Lexan. A sheet of 20.3×66 cm glass was used for the bottom. Two pieces of 2.5×61 cm glass were laid along the long edges, and two pieces of […]. Each arena had 450 g of screened sand evenly applied, and moistened with deionized water to help hold it in place during construction of the arenas. Fisher brand tongue depressors, cut in half, were used as a food source for the termites, and placed at one end of the arena. Prior to adding the Lexan top sheets, 0.6 cm holes were drilled at one end, and three 0.6 cm treatment apertures were drilled equally spaced apart at the center line. One 8 cm Petri dish with a 0.6 cm hole drilled in the bottom was lined up with the hole at the end of the top sheet, and glued down. Glue was allowed to dry for 72 hours. Large binder clips were used to hold the arena together.
# (§2) Termiticide solutions were prepared as follows: Fipronil 0.017%; Fipronil 0.03%; Imidacloprid 0.05%; Imi-Fip 0.067% (Imidacloprid 0.05%, Fipronil 0.017%); and Untreated Control (water only). Ten ml of each finished solution of termiticide were applied to each arena: each of the three treatment apertures received 3.3 ml of termiticide. The treatments were allowed to dry for 24 hours, and the treatment apertures were covered with a 2.5×7.5 cm microscope slide. In each Petri dish, 500 worker and 15 soldier termites were added, using either R. flavipes or C. formosanus. Each treatment was replicated four times. Data regarding distance tunneled and mortality were collected daily for eight days. Data was analyzed using Analysis of Variance (ANOVA) and means were separated by Tukey's HSD (Honest Significant Difference test (IBM SPSS v 19).
# [2] = system: Eastern subterranean termites (Reticulitermes flavipes); assay: Thin plate bioassay; settings: 0.05% solution
# Method: as §1, §2
# [3] = system: Eastern Subterranean Reticulitermes flavipes termites; assay: Transfer effects among nestmates (donor/recipient Petri dish arenas); settings: Reticulitermes flavipes, donors treated with 50 ppm
# Method: The purpose of this study was to determine whether there is transference of […] among nestmates of subterranean termites. Arenas for this study consisted of a 15 cm Petri dish. […] Donor and untreated marked control termites were marked using RustOleum® Marking Paint, using methodology described by Keefer et al. 2012.
# Two untreated soldier termites for each species were added to each arena to simulate colony dynamics. Post-treatment observations for mortality were made at 4 h and then daily through day 7.
smiles,measurement,setting,value
"O=[N+]([O-])NC1=NCCN1Cc1ccc(Cl)nc1 [Imidacloprid, N-[1-[(6-Chloro-3-pyridyl)methyl]-4,5-dihydroimidazol-2-yl]nitramide]",Mean % mortality,[1]; 1 day post-treatment,0.80 a %
same,Mean % mortality,[1]; 2 days post-treatment,5.30 b %
same,Mean % mortality,[1]; 3 days post-treatment,23.25 a %
same,Mean % mortality,[1]; 4 days post-treatment,30.00 a %
same,Mean % mortality,[1]; 5 days post-treatment,55.00 a %
same,Mean % mortality,[1]; 6 days post-treatment,88.75 b %
same,Mean % mortality,[1]; 7 days post-treatment,100.00 a %
same,Mean % mortality,[1]; 8 days post-treatment,100.00a %
same,Mean % mortality,[2]; 1 day post-treatment,6.35 a %
same,Mean % mortality,[2]; 2 days post-treatment,12.00 b %
same,Mean % mortality,[2]; 3 days post-treatment,75.00 a %
same,Mean % mortality,[2]; 4 days post-treatment,80.00 a %
same,Mean % mortality,[2]; 5 days post-treatment,80.00 c %
same,Mean % mortality,[2]; 6 days post-treatment,100.00 a %
same,Mean % mortality,[2]; 7 days post-treatment,100.00 a %
same,Mean % mortality,[2]; 8 days post-treatment,100.00 a %
same,mortality at 50 ppm,"[3]; 4 h, by treatment (all ratios), 4 h, read-out: Mean % mortality of donors and recipients",27%
same,mortality at 50 ppm,"[3]; 4 h, donor:recipient ratio 1:19, 4 h, read-out: Mean total % mortality of donors and recipients",10%
same,mortality at 50 ppm,"[3]; 4 h, donor:recipient ratio 5:15, 4 h, read-out: Mean total % mortality of donors and recipients",21.2%
same,mortality at 50 ppm,"[3]; 4 h, donor:recipient ratio 10:10, 4 h, read-out: Mean total % mortality of donors and recipients",43.8%
same,mortality at 50 ppm,"[3]; 4 h, donor:recipient ratio 15:5, 4 h, read-out: Mean total % mortality of donors and recipients",33.8%
same,mortality at 50 ppm,"[3]; 24 h, by treatment (all ratios), 1 d, read-out: Mean % mortality of donors and recipients",64.4%
same,mortality at 50 ppm,"[3]; 24 h, donor:recipient ratio 1:19, 1 d, read-out: Mean total % mortality of donors and recipients",30%
same,mortality at 50 ppm,"[3]; 24 h, donor:recipient ratio 5:15, 1 d, read-out: Mean total % mortality of donors and recipients",51.2%
same,mortality at 50 ppm,"[3]; 24 h, donor:recipient ratio 10:10, 1 d, read-out: Mean total % mortality of donors and recipients",80%
same,mortality at 50 ppm,"[3]; 24 h, donor:recipient ratio 15:5, 1 d, read-out: Mean total % mortality of donors and recipients",96.2%
same,mortality at 50 ppm,"[3]; 48 h, by treatment (all ratios), 2 d, read-out: Mean % mortality of donors and recipients",64.4%
same,mortality at 50 ppm,"[3]; 48 h, donor:recipient ratio 1:19, 2 d, read-out: Mean total % mortality of donors and recipients",30%
same,mortality at 50 ppm,"[3]; 48 h, donor:recipient ratio 5:15, 2 d, read-out: Mean total % mortality of donors and recipients",51.2%
same,mortality at 50 ppm,"[3]; 48 h, donor:recipient ratio 10:10, 2 d, read-out: Mean total % mortality of donors and recipients",80%
same,mortality at 50 ppm,"[3]; 48 h, donor:recipient ratio 15:5, 2 d, read-out: Mean total % mortality of donors and recipients",96.2%
same,mortality at 50 ppm,"[3]; 72 h, by treatment (all ratios), 3 d, read-out: Mean % mortality of donors and recipients",73.4%
same,mortality at 50 ppm,"[3]; 72 h, donor:recipient ratio 1:19, 3 d, read-out: Mean total % mortality of donors and recipients",33.8%
same,mortality at 50 ppm,"[3]; 72 h, donor:recipient ratio 5:15, 3 d, read-out: Mean total % mortality of donors and recipients",60%
same,mortality at 50 ppm,"[3]; 72 h, donor:recipient ratio 10:10, 3 d, read-out: Mean total % mortality of donors and recipients",100%
same,mortality at 50 ppm,"[3]; 72 h, donor:recipient ratio 15:5, 3 d, read-out: Mean total % mortality of donors and recipients",100%
same,mortality at 50 ppm,"[3]; 96 h, by treatment (all ratios), 4 d, read-out: Mean % mortality of donors and recipients",73.4%
same,mortality at 50 ppm,"[3]; 96 h, donor:recipient ratio 1:19, 4 d, read-out: Mean total % mortality of donors and recipients",72.5%
same,mortality at 50 ppm,"[3]; 96 h, donor:recipient ratio 5:15, 4 d, read-out: Mean total % mortality of donors and recipients",71.2%
same,mortality at 50 ppm,"[3]; 96 h, donor:recipient ratio 10:10, 4 d, read-out: Mean total % mortality of donors and recipients",100%
same,mortality at 50 ppm,"[3]; 96 h, donor:recipient ratio 15:5, 4 d, read-out: Mean total % mortality of donors and recipients",100%
same,mortality at 50 ppm,"[3]; 120 h, by treatment (all ratios), 5 d, read-out: Mean % mortality of donors and recipients",90.9%
same,mortality at 50 ppm,"[3]; 120 h, donor:recipient ratio 1:19, 5 d, read-out: Mean total % mortality of donors and recipients",76.2%
same,mortality at 50 ppm,"[3]; 120 h, donor:recipient ratio 5:15, 5 d, read-out: Mean total % mortality of donors and recipients",87.5%
same,mortality at 50 ppm,"[3]; 120 h, donor:recipient ratio 10:10, 5 d, read-out: Mean total % mortality of donors and recipients",100%
same,mortality at 50 ppm,"[3]; 120 h, donor:recipient ratio 15:5, 5 d, read-out: Mean total % mortality of donors and recipients",100%
same,mortality at 50 ppm,"[3]; 144 h, by treatment (all ratios), 6 d, read-out: Mean % mortality of donors and recipients",98.4%
same,mortality at 50 ppm,"[3]; 144 h, donor:recipient ratio 1:19, 6 d, read-out: Mean total % mortality of donors and recipients",98.8%
same,mortality at 50 ppm,"[3]; 144 h, donor:recipient ratio 5:15, 6 d, read-out: Mean total % mortality of donors and recipients",95%
